Here are results for three compounds from patent US20080255244A1, “CaM Kinase II Inhibitor Improves Retinoic Acid Therapy and Inhibits the Proliferation of Myeloid Leukemia Cells” (Fred Hutchinson Cancer Research Center, priority 2007, published 2008).

One test deals with T1, RARα/N-CoR interaction (Homo sapiens, UniProt P10276).
T1 construct: expressed in transfected cells; host or cells: MPRO promyelocytes (murine), electroporated
As to the kind of experiment: Mammalian two hybrid, Gal-N-CoR / RARαVP16, in MPRO promyelocytes. Type of test: cell-based. Particulars: ATRA six hours, KN62 48 hours. The source says: (§1) Transient transfections and luciferase assays. Murine PT67 fibroblasts were transfected utilizing calcium phosphate precipitation. All hematopoietic cell lines were transiently transfected by electroporation as previously detailed (Johnson, B. et al., Molecular and Cellular Biology 19:3372-3382 (1999)). In the transient transfections the LXSN vector (M28248) served as the expression vector for the wild type and site-directed mutagenized CaMKII and RARα coding region cDNAs. Human cDNA homologous to the coding region of rat CaMKIINα, a CaMKII inhibitory protein, was obtained by RT-PCR from HL60 RNA and cloned into the LXSN vector. The RA-responsive luciferase reporter harbors the RARE from the RARβ2 promoter as previously detailed (Si, J., and Collins, S. J., Blood 100:4401-4409 (2002)). The PON838 plasmid, a β-galactosidase reporter driven by the β-actin promoter, was used as an internal control to determine transfection efficiency for calculating relative luciferase activity.

Test [1] has as its system autophosphorylated CaMKIIγ in K562 cells. The test is described as follows: Western blot of CaMKIIγ autophosphorylation in K562 cells. Type of test: cell-based, human. Particulars: gleevec 5 uM, ATRA five days. The procedure:
(§2) FIG. 9. Terminal differentiation/apoptosis of myeloid leukemia cells is associated with decreased CaMKIIγ activation. (A) Lysates from the HL60, NB4 and U937 myeloid cell lines treated with ATRA (1 μM) for the indicated period of time were subjected to Western blots. (B) Lysates from the indicated myeloid cell lines treated for five days with the indicated concentration of ATRA were subjected to Western blots. (C) Lysates from HL60 cells treated with TPA (0.1 μM) for the indicated time were subjected to Western blots. (D) Lysates from NB4 cells treated with arsenic trioxide (1 uM) for the indicated time were subjected to Western blots.
FIG. 10. Inhibiting bcr-abl activity/expression inhibits CaMKIIγ activation. (A) Lysates from K562 cells undergoing growth arrest following treatment with gleevec (5 uM) for the indicated times were subjected to Western blots. (B) Lysates from TonB210.1 cells depleted of doxycycline for the indicated period of time were subjected to Western blots. (C) IL-3 dependent TonB210.1 cells were deprived of IL-3 for 24 hours (lane 1). The cells were then treated with the indicated compounds simultaneously with the addition of doxycycline (lanes 2-8). After 24 hours cell lysates were harvested and subjected to Western blots with the indicated CaMKII antibodies. (D) K562 cells were cultured for 48 hours with the indicated chemical inhibitors of specific signal transduction pathways. Cell lysates were harvested and subjected to Western blot analysis.
FIG. 12. CaMKII regulates multiple signal transduction pathways in myeloid cells. (A,B) Lysates from K562 cells cultured for the indicated time in KN93 were subjected to Western blots. (C) The K562 cells transduced as described in Materials and Methods with either (i) the doxycycline (DOX) inducible expression vector/transactivator harboring the full length, Lys^43 mutated, kinase dead CaMKIIγ (kdCaMKIIγ (Tet-on)) or (ii) the CaMKII shRNA generating plasmids, were cultured in liquid suspension in the presence or absence of DOX as indicated, and cell counts obtained after 48 hours. (D) Lysates from K562 cells transduced with the indicated vectors were subjected to Western blots utilizing the indicated antibodies. For lanes 2 and 4 doxycycline (DOX) treatment was for two days.
(§3) Antibodies and Western blots. Protein extracts, immunoprecipitations and Western blots were performed as previously detailed (Si J, Collins S J. IL-3-induced enhancement of retinoic acid receptor activity is mediated through Stat5, which physically associates with retinoic acid receptors in an IL-3-dependent manner. Blood 100: 4401-9 (2002)). Antibodies against CaMKI, CaMKIIγ, CaMKIV, c-myc, Stat3, Stat5, calmodulin, as well as the phosphospecific CaMKII (T286, 287) and phosphospecific CaMKI (T177) antibodies were from Santa Cruz Biotechnology. Antibodies against phospho-Stat1 (Ser727), phospho-Stat3 (Ser727 and Tyr 705), phospho-Stat5 (Tyr 694), phospho-p44/42 MAP kinase (Thr202/Tyr 204), p44/42 MAP kinase, phospho-p38 MAP kinase (Thr 180/Tyr 182), phospho-GSK3β (Ser9) were from Cell Signaling Technology. Antibodies against Stat1, GSK3β, β-catenin, PP2Ac, and cyclin D1 were from BD Biosciences.

For test [2], the system named is autophosphorylated CaMKIIγ in NB4 cells. As to the kind of experiment: Western blot of CaMKIIγ autophosphorylation in NB4 cells. It is filed as cell-based, human. Particulars: for activated, autophosphorylated CaMKIIγ level: single agent, ATRA 1 μM, arsenic trioxide 1 uM. The procedure:
FIG. 7. KN-62 regulates the differentiation of myeloid leukemia cell lines. (A) Wright Giemsa-stained HL-60 cells either (a) uninduced or treated for five days with (b) KN62 or (c) ATRA. (d) CD11b expression in HL-60 cells after five days exposure to KN62 (5 μM) or ATRA (1 μM). (B) Wright-Giemsa stained NB4 cells treated for five days with KN-62 (5 μM) and ATRA as indicated. […] (C) Cd11b expression of NB4 cells treated for five days with the indicated concentrations of RA and/or KN-62. (D) Western blots with the indicated antibodies were performed on HL60 cell lysates following incubation with KN62 for the indicated period of time. (E) Western blots of NB4 cell lysates following a five day incubation with the indicated compounds.
as §2
Protein extracts, Western blotting and co-immunoprecipitations. Westerns and co-immunoprecipitations were performed as previously detailed (Si, J., and Collins, S. J., Blood 100:4401-4409 (2002)).
as §3

Test [3] concerns RAR transcriptional activity in HL60 cells. The test is described as follows: RARE-driven luciferase reporter in HL60 cells. It is filed as cell-based, human. Particulars: KN62 5 uM, KN93 5 uM, ATRA 1 uM, six hours. The procedure:
FIG. 1. CaM kinase isoform expression in hematopoietic cells. (A) The activity of an ATRA-responsive luciferase reporter (βRARE-tk-Luc, 25 μg) was assessed in electroporated HL60 cells six hours after treatment with the indicated concentrations of ionomycin and ATRA. (B) The activity of the luciferase reporter (βRARE-tk-Luc, 25 μg) was assessed in HL60 six hours after treatment with KN62 (5 uM), KN93 (5 uM) and ATRA (1 uM). (C) Western blots were performed utilizing the indicated antibodies. F9 (column 6) is a mouse embryonal carcinoma cell line. BaF3 (column 7) is a cultured pre-B cell line. BM cells (column 8) are kit-ligand dependent normal murine hematopoietic precursors. PT67 murine fibroblasts individually transduced with either rat CaMKIIα, human CaMKIα or human CaMKIV (column 9) together with brain lysates (column 1) serve as positive controls for the respective antibodies. (D) CaMK assays were performed on HL-60 cell lysates immunoprecipitated with the indicated antibodies.
as §1

The subject of a further test is CaMKs. Particulars: inhibitors interfere with binding of Ca++/CaM to the CaMKs; cited from earlier work.
Test [4] relates to autophosphorylated CaMKIIγ in TonB210.1 cells. As to the kind of experiment: bcr-abl induced CaMKII autophosphorylation in TonB210.1 cells (Western blot). Type of test: cell-based. Particulars: TonB210.1 deprived of IL-3 for 24 hours, compound added with doxycycline.

Structures are written as SMILES.

T1 sequence (P10276 whole entry): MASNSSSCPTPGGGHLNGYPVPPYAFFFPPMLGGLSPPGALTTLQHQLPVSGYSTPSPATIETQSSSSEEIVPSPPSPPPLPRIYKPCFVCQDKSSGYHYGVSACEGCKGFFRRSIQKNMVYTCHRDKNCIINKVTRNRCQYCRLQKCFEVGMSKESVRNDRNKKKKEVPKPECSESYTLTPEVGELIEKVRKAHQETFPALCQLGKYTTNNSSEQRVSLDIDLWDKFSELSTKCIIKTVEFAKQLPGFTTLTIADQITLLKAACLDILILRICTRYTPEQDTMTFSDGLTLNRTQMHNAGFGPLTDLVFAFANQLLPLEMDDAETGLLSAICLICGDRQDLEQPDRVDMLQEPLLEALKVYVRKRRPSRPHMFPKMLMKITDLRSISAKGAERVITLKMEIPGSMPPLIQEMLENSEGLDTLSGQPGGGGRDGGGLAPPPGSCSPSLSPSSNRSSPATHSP

For the compound `CC1=C(/C=C/C(C)=C/C=C/C(C)=C/C(=O)O)C(C)(C)CCC1` [ATRA, All-trans retinoic acid], the “(UAS)5-driven luciferase reporter activity (RARα/N-CoR interaction)” value at RARα/N-CoR interaction is reported as “marked decrease”. For the same compound, the “activated, autophosphorylated CaMKIIγ level” value in test [1] is “did not exhibit any decrease”. In addition, in test [2], the “total CaMKIIγ level” value is “essentially unchanged” and the “activated, autophosphorylated CaMKIIγ level” value was “marked decrease”.
On to `CN([C@@H](Cc1ccc(OS(=O)(=O)c2cccc3cnccc23)cc1)C(=O)N1CCN(c2ccccc2)CC1)S(=O)(=O)c1cccc2cnccc12` [KN-62], for which, on RARα/N-CoR interaction, the “(UAS)5-driven luciferase reporter activity (RARα/N-CoR interaction)” value is listed as “significantly inhibits”. Also, the “RAR transcriptional activity (βRARE-tk-Luc reporter)” value in test [3] is “enhance”. For the same compound, the “autophosphorylated CaMKIIγ level” value in test [2] (KN62 combined with relatively low concentrations of RA, five days) is recorded as “reduction”. Besides, the “activated, autophosphorylated CaMKIIγ level” value in test [2] is given as “little effect”. The IC50 in the test with CaMKs is 900 nM. In addition, in test [4], the “bcr-abl (tet/doxycycline) restored CaMKII autophosphorylation” value is “inhibited in a dose dependent manner”.
On to `COc1ccc(S(=O)(=O)N(CCO)c2ccccc2CN(C)C/C=C/c2ccc(Cl)cc2)cc1` [KN-93], for which the “activated, autophosphorylated CaMKIIγ level” value in test [1] was “time dependent reduction”. Also, in test [3], the “RAR transcriptional activity (βRARE-tk-Luc reporter)” value was “enhance”. Also, the IC50 in the test on CaMKs was 900 nM. The “bcr-abl (tet/doxycycline) restored CaMKII autophosphorylation” value in test [4] was “inhibited in a dose dependent manner”.
